# “Also recorded” adds a separate entry of the source.
# Key:
# [1] = test system: male rats; assay: Toxicity and lifespan observation of ENU-treated male rats; assay type: in vivo, rat
# Method: ENU mutagenesis rat protocol: Pathogen-free inbred Wistar Furth (WF), inbred Fischer-344 (F344) and outbred Sprague Dawley (SD) male and female rats were obtained from Harlan Sprague Dawley, Inc. (Indianapolis, Ind.). All rats were given Teklad Lab Blox chow (Harlan Teklad, Madison, Wis.), acidified water ad libitum, and were housed under a 12-h light/12-h dark cycle. After a one week acclimation period, nine-week-old male rats were administered ENU as a single intraperitoneal injection; for a split dose, rats were injected with ENU once at 9 weeks of age and again at 10 weeks of age. One gram of ENU (Sigma) was dissolved in 10 mls of 95% ethanol and then diluted with 90 mls of phosphate citrate buffer prior to injection. All injections of ENU were given in the morning hours. To characterize the effect of ENU treatment on fertility in the various rat strains, mutagenized males were paired with untreated females of the same strain for consecutive 2-3 week periods, beginning 3-5 weeks after the first ENU treatment and continuing a minimum of 26 weeks post-ENU. We observed female rats for vaginal plugs, gross pregnancy and date of birth/size of litters. […]
# [2] = test system: male rats (SD, F344, WF); assay: Effects of ENU treatment on male rat fertility (breeding to same-strain females); assay type: in vivo; details: for % fertile males: weeks 7-26 post-ENU
# Method: ENU mutagenesis rat protocol: Pathogen-free inbred Wistar Furth (WF), inbred Fischer-344 (F344) and outbred Sprague Dawley (SD) male and female rats were obtained from Harlan Sprague Dawley, Inc. (Indianapolis, Ind.). All rats were given Teklad Lab Blox chow (Harlan Teklad, Madison, Wis.), acidified water ad libitum, and were housed under a 12-h light/12-h dark cycle. After a one week acclimation period, nine-week-old male rats were administered ENU as a single intraperitoneal injection; for a split dose, rats were injected with ENU once at 9 weeks of age and again at 10 weeks of age. One gram of ENU (Sigma) was dissolved in 10 mls of 95% ethanol and then diluted with 90 mls of phosphate citrate buffer prior to injection. All injections of ENU were given in the morning hours. To characterize the effect of ENU treatment on fertility in the various rat strains, mutagenized males were paired with untreated females of the same strain for consecutive 2-3 week periods, beginning 3-5 weeks after the first ENU treatment and continuing a minimum of 26 weeks post-ENU. We observed female rats for vaginal plugs, gross pregnancy and date of birth/size of litters. For our phenotypic mutant (phenodeviant) rat screening experiments, ENU-treated SD male rats were bred with SD female rats and all F1 pups were visually checked for gross abnormalities in physical development or behavior as compared to littermates at least twice prior to weaning at approximately 21 days of age. A subset of the F1 phenodeviant rats identified was bred to SD rats to determine inheritance of the observed phenotypic mutation. Several of the heritable phenodeviant rat lines are currently being maintained and backcrossed to eliminate residual ENU-induced genetic changes not associated with the phenotypic mutation.
# Optimization of ENU dosages: We examined several rat strains, inbred WF and F344 rats and outbred SD rats in which groups of male rats were given either single or split doses of ENU. These male rats were then bred to same-strain female rats at various times post-ENU to test for fertility (Table 1). The three rat strains were unable to regain fertility following large doses of ENU. The WF strain was extremely sensitive to ENU-induced sterility. […] The SD and F344 strains responded in a similar manner with maximum ENU doses of 100-150 mg/kg, allowing for some percentage of rats to remain fertile or recover fertility; however, the F344 strain was more sensitive to split dose protocols compared to the SD rats. […] This phenomenon was also true for the both the F344 and WF rat strains. […] It also appears from the SD and F344 fertility data shown in Table 1 that these rat strains were more likely to remain fertile or regain fertility following a split dose of ENU versus a single dose when the total dose exposure was equal. In addition, average litter size was reduced in both the SD and F344 strains around weeks 1-9 post-ENU (data not shown), the same time period in which we observed reduced fertility in the ENU-treated males.
smiles,measurement,setting,value
"CCN(N=O)C(N)=O [ENU, N-ethyl-N-nitrosourea]",lifespan and tumors of fertile mutagenized male rats,[1]; about one year post-ENU,"shortened, with many developing skin and kidney tumors and lymphomas at approximately one year of age"
same,acute toxicity to male rats,"[1]; all doses of Table 1, SD, F344, WF",none of the ENU doses used were toxic to the male rats; also recorded: None of the doses listed in Table 1 were acutely toxic
same,fertility of treated males,"[2]; F344, 75 mg/kg",All rats remained fertile
same,rats that maintained fertility,"[2]; F344, 100 mg/kg given in either a single or split dose",about 60%
same,% fertile males,"[2]; F344, single dose 75 mg/kg i.p.",100%
same,% fertile males,"[2]; F344, single dose 100 mg/kg i.p.",67%
same,% fertile males,"[2]; F344, single dose 120 mg/kg i.p.",0%
same,% fertile males,"[2]; F344, split dose 2 × 50 mg/kg",60%
same,% fertile males,"[2]; F344, split dose 2 × 60 mg/kg",40%
same,% fertile males,"[2]; F344, split dose 2 × 75 mg/kg",0%
same,% fertile males,"[2]; F344, split dose 2 × 100 mg/kg",0%
same,maximum ENU doses allowing some percentage of rats to remain fertile or recover fertility,[2]; SD and F344 strains,100 to 150 mg/kg
same,average litter size,"[2]; SD and F344 strains, around weeks 1-9 post-ENU (data not shown)",reduced
same,% fertile males,"[2]; SD, single dose 75 mg/kg i.p.",100%
same,% fertile males,"[2]; SD, single dose 100 mg/kg i.p.",80%
same,% fertile males,"[2]; SD, single dose 120 mg/kg i.p.",33%
same,% fertile males,"[2]; SD, single dose 150 mg/kg i.p.",0%
same,% fertile males,"[2]; SD, single dose 200 mg/kg i.p.",0%
same,fertility of treated males,"[2]; SD, split dose 2×50 mg/kg or 2×60 mg/kg, after a brief recovery period",fully fertile
same,% fertile males,"[2]; SD, split dose 2 × 50 mg/kg",100%
same,% fertile males,"[2]; SD, split dose 2 × 60 mg/kg",100%
same,% fertile males,"[2]; SD, split dose 2 × 75 mg/kg",20%
same,% fertile males,"[2]; SD, split dose 2 × 100 mg/kg",0%
same,maximum total dose after which fertile males were obtained,[2]; WF strain,50 mg/kg
same,male rats permanently sterilized,"[2]; WF, 25 mg/kg single injection",approximately 70%
same,% fertile males,"[2]; WF, single dose 25 mg/kg i.p.",30%
same,% fertile males,"[2]; WF, single dose 35 mg/kg i.p.",33%
same,% fertile males,"[2]; WF, single dose 50 mg/kg i.p.",25%
same,% fertile males,"[2]; WF, single dose 75 mg/kg i.p.",0%
same,% fertile males,"[2]; WF, single dose 100 mg/kg i.p.",0%
same,% fertile males,"[2]; WF, split dose 2 × 15 mg/kg",17%
same,% fertile males,"[2]; WF, split dose 2 × 25 mg/kg",17%
same,% fertile males,"[2]; WF, split dose 2 × 50 mg/kg",0%
same,% fertile males,"[2]; WF, split dose 2 × 75 mg/kg",0%
